Laboratory results taken from ChEMBL document CHEMBL4422610, “HDAC as onco target: Reviewing the synthetic approaches with SAR study of their inhibitors” (Eur J Med Chem, 2018).

Assays:
Histone deacetylase 2 = Histone deacetylase 2 (Homo sapiens, UniProt Q92769)
Histone deacetylase 1 [1] = target: T1, Histone deacetylase 1 (Homo sapiens, UniProt Q13547); test: Inhibition of recombinant human FLAG/His-tagged HDAC1 expressed in baculovirus expression system using Boc-l-Lys(Ac)-AMC as substrate preincubated up to 3 hrs and measured after 35 mins by fluorescence assay
Histone deacetylase 8 [2] = target: T2, Histone deacetylase 8 (Homo sapiens, UniProt Q9BY41); test: Inhibition of HDAC8 (unknown origin) expressed in Escherichia coli using BML-KI-178 as substrate preincubated up to 3 hrs and measured after 35 mins by fluorescence assay
T2 sequence (Q9BY41 whole entry): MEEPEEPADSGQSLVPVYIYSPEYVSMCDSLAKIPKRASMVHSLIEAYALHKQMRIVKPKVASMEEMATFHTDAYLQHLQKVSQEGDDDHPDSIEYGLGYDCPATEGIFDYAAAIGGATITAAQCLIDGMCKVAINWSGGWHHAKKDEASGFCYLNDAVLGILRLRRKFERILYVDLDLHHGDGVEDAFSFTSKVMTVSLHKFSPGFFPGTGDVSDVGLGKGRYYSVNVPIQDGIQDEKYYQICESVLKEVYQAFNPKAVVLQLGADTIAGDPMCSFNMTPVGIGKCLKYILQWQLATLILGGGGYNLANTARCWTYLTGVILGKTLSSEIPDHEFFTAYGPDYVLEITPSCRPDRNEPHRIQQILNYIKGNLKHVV

[3] = target: Histone deacetylase 3/Nuclear receptor corepressor 2 (HDAC3/NCoR2) (Homo sapiens, UniProt O15379); test: Inhibition of human recombinant full length C-terminal His-tagged HDAC3 (1 to 428 residues)/N-terminal GST-tagged NCOR2 (395 to 489 residues) expressed in insect cells using Boc-l-Lys(Ac)-AMC as substrate preincubated up to 3 hrs and measured after 35 mins by fluorescence assay
[4] = target: T3, Protein deacetylase HDAC6 (Homo sapiens, UniProt Q9UBN7); test: Inhibition of HDAC6 in human HeLa nuclear extract using Boc-Lys(acetyl)-AMC as substrate measured after 30 mins by fluorescence assay; format: cell-free
T3 sequence (Q9UBN7 whole entry): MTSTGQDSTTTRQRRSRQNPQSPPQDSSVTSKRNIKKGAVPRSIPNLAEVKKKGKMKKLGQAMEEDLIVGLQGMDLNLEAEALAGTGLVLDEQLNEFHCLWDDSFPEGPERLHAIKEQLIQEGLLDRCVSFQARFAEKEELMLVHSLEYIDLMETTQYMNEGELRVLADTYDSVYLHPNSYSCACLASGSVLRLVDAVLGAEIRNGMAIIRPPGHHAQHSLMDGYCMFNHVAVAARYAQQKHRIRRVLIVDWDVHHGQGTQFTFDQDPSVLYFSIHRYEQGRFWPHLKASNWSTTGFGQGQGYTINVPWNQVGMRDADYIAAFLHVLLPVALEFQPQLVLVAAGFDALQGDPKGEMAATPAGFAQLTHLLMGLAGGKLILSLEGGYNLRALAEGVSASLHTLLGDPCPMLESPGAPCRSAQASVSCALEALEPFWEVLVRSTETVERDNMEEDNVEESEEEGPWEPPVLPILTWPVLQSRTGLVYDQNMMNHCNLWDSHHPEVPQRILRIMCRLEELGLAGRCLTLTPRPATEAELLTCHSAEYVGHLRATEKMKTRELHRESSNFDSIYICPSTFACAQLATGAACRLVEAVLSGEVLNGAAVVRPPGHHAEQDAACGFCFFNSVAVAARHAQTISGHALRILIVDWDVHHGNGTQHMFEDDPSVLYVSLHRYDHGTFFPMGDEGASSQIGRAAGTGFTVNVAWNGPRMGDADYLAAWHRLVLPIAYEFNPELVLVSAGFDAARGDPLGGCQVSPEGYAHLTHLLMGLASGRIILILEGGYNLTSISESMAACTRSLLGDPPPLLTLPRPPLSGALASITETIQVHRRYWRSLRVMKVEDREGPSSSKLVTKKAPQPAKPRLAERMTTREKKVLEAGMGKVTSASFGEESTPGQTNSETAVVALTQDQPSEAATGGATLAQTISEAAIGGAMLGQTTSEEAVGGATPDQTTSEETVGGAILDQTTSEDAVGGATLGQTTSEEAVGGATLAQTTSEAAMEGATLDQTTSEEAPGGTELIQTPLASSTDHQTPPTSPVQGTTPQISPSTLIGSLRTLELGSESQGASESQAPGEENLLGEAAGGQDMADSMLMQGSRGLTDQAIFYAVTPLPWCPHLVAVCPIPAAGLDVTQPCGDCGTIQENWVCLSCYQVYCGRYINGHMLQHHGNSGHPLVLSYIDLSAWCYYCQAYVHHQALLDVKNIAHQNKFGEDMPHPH

Histone deacetylase 8 [5] = target: T2, Histone deacetylase 8; test: Inhibition of HDAC8 in human HeLa nuclear extract using Boc-Lys(acetyl)-AMC as substrate measured after 30 mins by fluorescence assay; format: cell-free
MDA-MB-231 = test: cells; conditions: Homo sapiens
[6] = target: T3, Protein deacetylase HDAC6; test: Inhibition of recombinant full-length human N-terminal GST-tagged HDAC6 expressed in baculovirus infected Sf9 insect cells using fluorescent-labelled Arg-His-Lys-Lys(Ac) as substrate measured after 2 hrs by fluorescence assay
Histone deacetylase 4 = Histone deacetylase 4 (Homo sapiens, UniProt P56524); test: Inhibition of recombinant human HDAC4 expressed in HEK293T cells using Ac-KGLGK(Ac)-MCA as substrate measured after 30 mins by fluorescence assay
K562 = test: cells; conditions: Homo sapiens, K562, 48 h
MCF7 = test: cells; conditions: Homo sapiens, MCF7, 48 h
[7] = target: T4, Protein deacetylase HDAC6 (Mus musculus, UniProt Q9Z2V5); test: Inhibition of recombinant mouse HDAC6 expressed in HEK293T cells using Ac-KGLGK(Ac)-MCA as substrate measured after 30 mins by fluorescence assay
T4 sequence (Q9Z2V5 whole entry): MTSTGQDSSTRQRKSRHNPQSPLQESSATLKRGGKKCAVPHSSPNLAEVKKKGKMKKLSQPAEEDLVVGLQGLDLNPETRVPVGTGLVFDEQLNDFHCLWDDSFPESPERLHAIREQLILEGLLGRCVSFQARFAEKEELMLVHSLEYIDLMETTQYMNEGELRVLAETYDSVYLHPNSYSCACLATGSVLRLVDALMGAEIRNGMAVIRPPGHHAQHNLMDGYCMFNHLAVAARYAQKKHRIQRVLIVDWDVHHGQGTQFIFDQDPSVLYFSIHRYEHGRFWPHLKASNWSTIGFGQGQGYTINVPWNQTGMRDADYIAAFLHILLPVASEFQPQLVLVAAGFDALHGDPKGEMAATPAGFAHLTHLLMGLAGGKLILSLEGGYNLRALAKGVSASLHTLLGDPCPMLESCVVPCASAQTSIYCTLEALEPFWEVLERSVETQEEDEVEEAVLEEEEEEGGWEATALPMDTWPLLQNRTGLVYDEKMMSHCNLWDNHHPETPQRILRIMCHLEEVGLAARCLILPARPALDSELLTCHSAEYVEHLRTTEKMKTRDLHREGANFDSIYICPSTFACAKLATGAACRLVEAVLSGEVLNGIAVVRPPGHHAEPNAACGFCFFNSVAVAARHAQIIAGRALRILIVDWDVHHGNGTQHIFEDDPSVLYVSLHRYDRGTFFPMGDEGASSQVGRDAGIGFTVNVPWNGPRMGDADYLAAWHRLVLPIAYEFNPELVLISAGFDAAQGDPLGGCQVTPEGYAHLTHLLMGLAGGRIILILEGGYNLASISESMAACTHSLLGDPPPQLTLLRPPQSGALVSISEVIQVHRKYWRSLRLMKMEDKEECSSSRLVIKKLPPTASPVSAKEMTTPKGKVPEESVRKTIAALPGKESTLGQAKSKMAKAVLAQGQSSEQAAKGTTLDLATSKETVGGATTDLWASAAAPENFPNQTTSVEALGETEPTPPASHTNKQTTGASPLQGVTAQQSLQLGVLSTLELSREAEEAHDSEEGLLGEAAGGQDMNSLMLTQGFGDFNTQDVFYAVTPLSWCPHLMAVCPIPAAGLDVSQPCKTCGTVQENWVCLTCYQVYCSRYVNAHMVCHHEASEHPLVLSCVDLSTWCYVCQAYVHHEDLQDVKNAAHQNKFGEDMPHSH

Histone deacetylase 1 [8] = target: T1, Histone deacetylase 1; test: Inhibition of recombinant human HDAC1 expressed in HEK293T cells using Ac-KGLGK(Ac)-MCA as substrate measured after 30 mins by fluorescence assay
HeLa = test: cells; conditions: Homo sapiens, 48 h
Histone deacetylase 1 [9] = target: T1, Histone deacetylase 1; test: Inhibition of HDAC1 (unknown origin)
[10] = target: T3, Protein deacetylase HDAC6; test: Inhibition of HDAC6 (unknown origin)
Histone deacetylase 8 [11] = target: T2, Histone deacetylase 8; test: Inhibition of HDAC8 (unknown origin)
Histone deacetylase [12] = format: cell-based, Homo sapiens; conditions: hela
Histone deacetylase [13] = format: cell-based, Homo sapiens; conditions: hela; remark: listed apart in the source
Histone deacetylase 1 [14] = target: T1, Histone deacetylase 1; test: Inhibition of HDAC1 (unknown origin) using (FAM)-labeled acetylated peptide as substrate measured after 17 hrs by fluorescence assay

Chain of Histone deacetylase 2 (Q92769 whole entry): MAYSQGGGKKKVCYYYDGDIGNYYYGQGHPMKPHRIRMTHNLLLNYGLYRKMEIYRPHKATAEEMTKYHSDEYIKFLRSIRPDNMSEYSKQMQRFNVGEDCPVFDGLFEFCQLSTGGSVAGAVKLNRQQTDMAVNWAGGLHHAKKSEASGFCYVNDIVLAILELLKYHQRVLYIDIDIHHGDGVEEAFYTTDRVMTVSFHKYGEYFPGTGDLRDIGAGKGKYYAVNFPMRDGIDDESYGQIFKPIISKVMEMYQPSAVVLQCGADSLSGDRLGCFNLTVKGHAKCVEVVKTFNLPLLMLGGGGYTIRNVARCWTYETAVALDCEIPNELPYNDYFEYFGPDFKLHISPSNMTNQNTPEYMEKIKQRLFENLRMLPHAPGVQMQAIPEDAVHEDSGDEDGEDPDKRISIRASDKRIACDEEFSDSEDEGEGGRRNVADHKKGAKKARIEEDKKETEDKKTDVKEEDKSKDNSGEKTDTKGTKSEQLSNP
T1 sequence (Q13547 whole entry): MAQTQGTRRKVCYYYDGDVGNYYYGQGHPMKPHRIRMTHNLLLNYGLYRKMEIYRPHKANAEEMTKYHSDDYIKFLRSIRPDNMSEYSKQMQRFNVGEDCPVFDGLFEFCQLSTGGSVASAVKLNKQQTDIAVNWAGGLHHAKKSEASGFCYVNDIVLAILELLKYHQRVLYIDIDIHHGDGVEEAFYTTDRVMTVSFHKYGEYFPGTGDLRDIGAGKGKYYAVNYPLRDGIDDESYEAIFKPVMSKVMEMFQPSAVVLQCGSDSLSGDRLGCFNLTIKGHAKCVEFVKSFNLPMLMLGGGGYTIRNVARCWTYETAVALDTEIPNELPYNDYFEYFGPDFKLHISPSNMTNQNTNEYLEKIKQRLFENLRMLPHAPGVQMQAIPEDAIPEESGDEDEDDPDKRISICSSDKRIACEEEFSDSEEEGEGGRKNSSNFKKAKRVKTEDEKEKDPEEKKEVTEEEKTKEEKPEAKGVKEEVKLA
Chain of Histone deacetylase 3/Nuclear receptor corepressor 2 (HDAC3/NCoR2) (O15379 whole entry, the tested form may be a part): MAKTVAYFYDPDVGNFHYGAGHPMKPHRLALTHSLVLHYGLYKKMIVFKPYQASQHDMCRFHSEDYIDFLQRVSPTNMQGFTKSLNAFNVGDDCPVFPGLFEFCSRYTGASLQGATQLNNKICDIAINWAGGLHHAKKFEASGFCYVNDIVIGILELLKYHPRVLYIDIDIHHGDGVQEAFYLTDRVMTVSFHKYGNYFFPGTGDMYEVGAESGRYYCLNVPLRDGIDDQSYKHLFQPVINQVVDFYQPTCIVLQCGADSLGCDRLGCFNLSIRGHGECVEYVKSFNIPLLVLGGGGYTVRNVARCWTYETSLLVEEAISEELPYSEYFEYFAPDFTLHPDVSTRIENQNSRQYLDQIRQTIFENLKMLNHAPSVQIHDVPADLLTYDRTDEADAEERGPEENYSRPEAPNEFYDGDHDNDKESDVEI
Chain of Histone deacetylase 3/Nuclear receptor corepressor 2 (HDAC3/NCoR2) (Q9Y618 whole entry, further chain, the tested form may be a part): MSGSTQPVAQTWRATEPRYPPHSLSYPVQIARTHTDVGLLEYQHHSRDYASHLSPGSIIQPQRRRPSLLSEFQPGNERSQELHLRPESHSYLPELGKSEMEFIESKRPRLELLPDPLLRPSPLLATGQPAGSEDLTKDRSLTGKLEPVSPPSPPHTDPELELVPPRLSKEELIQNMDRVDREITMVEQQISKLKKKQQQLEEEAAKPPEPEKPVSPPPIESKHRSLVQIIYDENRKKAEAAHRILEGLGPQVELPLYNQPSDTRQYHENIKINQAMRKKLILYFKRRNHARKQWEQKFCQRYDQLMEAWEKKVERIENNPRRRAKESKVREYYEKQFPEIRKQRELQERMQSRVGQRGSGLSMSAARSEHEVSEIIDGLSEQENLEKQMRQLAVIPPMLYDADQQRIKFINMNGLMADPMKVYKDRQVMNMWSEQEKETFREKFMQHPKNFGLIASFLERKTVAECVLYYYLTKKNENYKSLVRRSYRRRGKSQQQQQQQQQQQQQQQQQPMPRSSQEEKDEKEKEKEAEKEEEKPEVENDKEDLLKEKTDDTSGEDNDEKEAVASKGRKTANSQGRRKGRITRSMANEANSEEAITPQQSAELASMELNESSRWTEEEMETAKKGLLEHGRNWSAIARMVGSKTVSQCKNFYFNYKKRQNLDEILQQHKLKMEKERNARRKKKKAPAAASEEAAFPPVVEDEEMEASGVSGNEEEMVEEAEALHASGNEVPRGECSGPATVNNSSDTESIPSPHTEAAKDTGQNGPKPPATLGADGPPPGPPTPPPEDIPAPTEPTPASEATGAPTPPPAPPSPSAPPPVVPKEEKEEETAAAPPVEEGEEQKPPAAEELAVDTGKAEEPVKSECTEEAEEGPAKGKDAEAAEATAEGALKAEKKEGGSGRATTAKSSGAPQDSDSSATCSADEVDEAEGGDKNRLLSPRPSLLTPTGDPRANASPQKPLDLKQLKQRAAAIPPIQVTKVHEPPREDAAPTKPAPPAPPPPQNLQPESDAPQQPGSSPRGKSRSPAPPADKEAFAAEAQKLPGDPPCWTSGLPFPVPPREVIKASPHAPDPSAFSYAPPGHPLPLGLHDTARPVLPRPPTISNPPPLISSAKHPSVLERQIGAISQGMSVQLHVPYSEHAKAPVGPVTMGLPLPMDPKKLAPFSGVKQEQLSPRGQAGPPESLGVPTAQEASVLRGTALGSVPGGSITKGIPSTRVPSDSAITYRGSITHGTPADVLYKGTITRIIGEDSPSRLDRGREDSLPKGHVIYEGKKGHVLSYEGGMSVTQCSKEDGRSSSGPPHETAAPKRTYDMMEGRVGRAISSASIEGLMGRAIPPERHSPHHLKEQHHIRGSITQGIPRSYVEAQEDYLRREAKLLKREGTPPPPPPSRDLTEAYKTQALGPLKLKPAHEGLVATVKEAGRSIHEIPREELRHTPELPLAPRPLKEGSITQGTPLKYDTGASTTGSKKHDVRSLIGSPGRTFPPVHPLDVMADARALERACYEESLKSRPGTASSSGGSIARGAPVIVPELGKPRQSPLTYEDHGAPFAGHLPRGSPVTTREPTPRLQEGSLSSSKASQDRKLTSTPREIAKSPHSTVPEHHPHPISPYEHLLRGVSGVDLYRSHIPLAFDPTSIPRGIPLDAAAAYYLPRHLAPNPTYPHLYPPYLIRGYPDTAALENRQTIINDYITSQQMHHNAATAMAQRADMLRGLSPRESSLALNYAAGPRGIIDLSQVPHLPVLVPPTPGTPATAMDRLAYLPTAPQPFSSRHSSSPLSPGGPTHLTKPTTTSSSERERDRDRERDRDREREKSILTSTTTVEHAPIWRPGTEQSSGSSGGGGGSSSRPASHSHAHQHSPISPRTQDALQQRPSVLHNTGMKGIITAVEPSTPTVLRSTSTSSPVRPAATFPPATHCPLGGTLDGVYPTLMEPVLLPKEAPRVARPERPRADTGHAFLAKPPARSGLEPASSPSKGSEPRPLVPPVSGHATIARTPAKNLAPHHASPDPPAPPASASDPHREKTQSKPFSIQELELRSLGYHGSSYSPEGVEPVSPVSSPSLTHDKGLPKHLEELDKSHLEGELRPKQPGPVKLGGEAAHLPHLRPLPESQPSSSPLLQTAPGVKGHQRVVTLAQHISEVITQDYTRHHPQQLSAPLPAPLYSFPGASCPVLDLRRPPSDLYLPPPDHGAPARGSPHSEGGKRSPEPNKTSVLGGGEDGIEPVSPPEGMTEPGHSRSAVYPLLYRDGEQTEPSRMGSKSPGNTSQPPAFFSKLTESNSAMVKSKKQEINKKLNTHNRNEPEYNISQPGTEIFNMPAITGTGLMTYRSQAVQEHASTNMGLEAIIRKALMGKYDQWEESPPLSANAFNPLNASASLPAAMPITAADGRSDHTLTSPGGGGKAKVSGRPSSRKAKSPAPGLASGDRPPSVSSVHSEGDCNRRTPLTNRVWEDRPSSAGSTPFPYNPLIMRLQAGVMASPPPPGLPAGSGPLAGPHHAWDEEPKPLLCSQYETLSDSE
Chain of Histone deacetylase 4 (P56524 whole entry): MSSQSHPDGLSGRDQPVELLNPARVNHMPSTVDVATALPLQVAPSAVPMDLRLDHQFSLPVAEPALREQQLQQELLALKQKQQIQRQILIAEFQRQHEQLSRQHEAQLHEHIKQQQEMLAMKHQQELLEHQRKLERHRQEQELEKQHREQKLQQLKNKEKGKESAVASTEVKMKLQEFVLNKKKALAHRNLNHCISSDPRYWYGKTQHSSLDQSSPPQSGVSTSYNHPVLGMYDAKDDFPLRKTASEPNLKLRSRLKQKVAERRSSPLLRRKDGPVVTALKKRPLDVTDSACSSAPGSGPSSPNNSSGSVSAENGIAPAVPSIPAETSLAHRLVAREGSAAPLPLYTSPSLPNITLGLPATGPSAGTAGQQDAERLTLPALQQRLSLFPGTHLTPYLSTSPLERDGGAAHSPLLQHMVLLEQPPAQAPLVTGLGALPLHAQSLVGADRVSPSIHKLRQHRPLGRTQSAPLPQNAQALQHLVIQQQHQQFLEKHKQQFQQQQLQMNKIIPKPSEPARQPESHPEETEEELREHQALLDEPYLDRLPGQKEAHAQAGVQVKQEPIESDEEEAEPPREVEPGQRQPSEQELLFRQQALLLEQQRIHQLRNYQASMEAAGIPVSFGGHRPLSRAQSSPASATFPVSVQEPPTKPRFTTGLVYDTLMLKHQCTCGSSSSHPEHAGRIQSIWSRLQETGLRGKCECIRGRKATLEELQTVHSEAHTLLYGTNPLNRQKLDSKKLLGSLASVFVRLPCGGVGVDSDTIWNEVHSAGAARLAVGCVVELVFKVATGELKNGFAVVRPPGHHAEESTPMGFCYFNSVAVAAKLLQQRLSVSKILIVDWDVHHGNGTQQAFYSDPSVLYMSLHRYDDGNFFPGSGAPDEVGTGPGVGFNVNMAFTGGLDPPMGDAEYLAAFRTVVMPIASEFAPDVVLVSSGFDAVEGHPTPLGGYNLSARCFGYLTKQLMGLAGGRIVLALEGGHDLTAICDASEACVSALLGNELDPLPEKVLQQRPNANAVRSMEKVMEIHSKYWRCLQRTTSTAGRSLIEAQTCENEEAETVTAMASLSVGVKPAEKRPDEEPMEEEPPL

## O=C(CCCCCCn1cc(-c2ccc(C(=O)c3c(-c4ccc(O)cc4)sc4cc(O)ccc34)cc2)nn1)NO
Histone deacetylase 2
  IC50: 1820 nM
Histone deacetylase 1 [1]
  IC50: 1030 nM
Histone deacetylase 8 [2]
  IC50: 29900 nM
[3]
  IC50: 748 nM

## CNCCOc1no[n+]([O-])c1S(=O)(=O)c1ccccc1
[4]
  IC50: 160 nM
Histone deacetylase 8 [5]
  IC50: 260 nM

## O=C(CCCCCCC(=O)Nc1ccccc1)NO [VORINOSTAT]
MDA-MB-231
  IC50: 2140 nM

## CCN(CC)c1ccc(C(=O)NO)cc1
[6]
  IC50: 6280 nM

## CC1CCCC2(C1)NC(=O)[C@H](CCCCCC(=O)NO)NC(=O)[C@H]1CCCN1C(=O)[C@H](Cc1ccccc1)NC2=O (stereo not given in full)
Histone deacetylase 4
  IC50: 14 nM
K562
  IC50: 104 nM
MCF7
  IC50: 26 nM
[7]
  IC50: 160 nM
Histone deacetylase 1 [8]
  IC50: 15 nM
HeLa
  IC50: 48 nM

## O=C(CCCCCCNC(=O)c1c(-c2ccc(O)cc2)sc2cc(O)ccc12)NO
Histone deacetylase 2
  IC50: 2440 nM
Histone deacetylase 1 [1]
  IC50: 596 nM
Histone deacetylase 8 [2]
  IC50: 719 nM
[3]
  IC50: 214 nM

## O=C(/C=C/c1ccc(C(=O)NCCCOc2no[n+]([O-])c2S(=O)(=O)c2ccccc2)cc1)NO
[4]
  IC50: 230 nM
Histone deacetylase 8 [5]
  IC50: 460 nM

## Cc1c(CN(C)C)c2ccccc2n1-c1ccc(C(=O)NO)cc1
[6]
  IC50: 1.25 nM

## C[C@]12CC[C@@H]3c4ccc(O)cc4CC[C@H]3[C@@H]1CC[C@@]2(O)c1cn(CCCCC(=O)NO)nn1
Histone deacetylase 1 [9]
  IC50: 15 nM
[10]
  IC50: 8 nM
Histone deacetylase 8 [11]
  IC50: 11000 nM

## O=C(CCCCCCCNC(=O)c1c(-c2ccc(O)cc2)sc2cc(O)ccc12)NO
Histone deacetylase 2
  IC50: 665 nM
Histone deacetylase 1 [1]
  IC50: 168 nM
Histone deacetylase 8 [2]
  IC50: 400 nM
[3]
  IC50: 128 nM

## CC1CCCCC12NC(=O)[C@H](CCCCCC(=O)NO)NC(=O)[C@H]1CCCN1C(=O)[C@H](Cc1ccccc1)NC2=O (stereo not given in full)
Histone deacetylase 4
  IC50: 6 nM
K562
  IC50: 876 nM
MCF7
  IC50: 31 nM
[7]
  IC50: 130 nM
Histone deacetylase 1 [8]
  IC50: 10 nM
HeLa
  IC50: 309 nM

## C[C@]12CC[C@@H]3c4ccc(O)cc4CC[C@H]3[C@@H]1CC[C@@]2(O)c1cn(CCCCCCC(=O)NO)nn1
Histone deacetylase 1 [9]
  IC50: 75 nM
[10]
  IC50: 32 nM
Histone deacetylase 8 [11]
  IC50: 4000 nM

## C[C@]12CC[C@@H]3c4ccc(O)cc4CC[C@H]3[C@@H]1CC[C@@]2(O)c1cn(CCCCCCCC(=O)NO)nn1
Histone deacetylase 1 [9]
  IC50: 28 nM
[10]
  IC50: 13 nM
Histone deacetylase 8 [11]
  IC50: 450 nM

## O=C(CCCCCn1cc(-c2ccc(C(=O)c3c(-c4ccc(O)cc4)sc4cc(O)ccc34)cc2)nn1)NO
Histone deacetylase 2
  IC50: 19200 nM
Histone deacetylase 1 [1]
  IC50: 839 nM
Histone deacetylase 8 [2]
  IC50: 23500 nM
[3]
  IC50: 5740 nM

## O=C(NO)c1ccc(N2CCCC2)cc1
[6]
  IC50: 540 nM

## CC(CNC(=O)c1ccc(/C=C/C(=O)NO)cc1)Oc1no[n+]([O-])c1S(=O)(=O)c1ccccc1 (stereo not given)
[4]
  IC50: 280 nM
Histone deacetylase 8 [5]
  IC50: 420 nM

## CCn1cnc(-c2ccc(OC)cc2)c1-c1ccc(/C=C/C(=O)NO)cc1
Histone deacetylase [12]
  IC50: 504 nM
Histone deacetylase [13]
  IC50: 36 nM

## Nc1ccccc1NC(=O)CCCCCCC(=O)Nc1cccc(-c2cn(-c3ccccc3)nn2)c1
Histone deacetylase 1 [14]
  IC50: > 30000 nM
